Results published in PMC8341910, “Structural and biophysical insights into the mode of covalent binding of rationally designed potent BMX inhibitors” (RSC Chemical Biology, 2020).
≈ marks a conversion by molar mass, not a printed value. Where “and” joins values, the source holds several entries; their conditions need not be identical. Equal values may be shown once. Read-outs that look alike come from different tables or passages of the source.

Legend:
BMX [1] = target: T1, BMX (Homo sapiens, UniProt P51813); assay: BMX biochemical activity assay (HTRF, phosphorylation of a biotinylated peptide); details: for LE (BMX): ligand efficiency; for LipE (BMX): lipophilic efficiency
T1 sequence (P51813 1-675): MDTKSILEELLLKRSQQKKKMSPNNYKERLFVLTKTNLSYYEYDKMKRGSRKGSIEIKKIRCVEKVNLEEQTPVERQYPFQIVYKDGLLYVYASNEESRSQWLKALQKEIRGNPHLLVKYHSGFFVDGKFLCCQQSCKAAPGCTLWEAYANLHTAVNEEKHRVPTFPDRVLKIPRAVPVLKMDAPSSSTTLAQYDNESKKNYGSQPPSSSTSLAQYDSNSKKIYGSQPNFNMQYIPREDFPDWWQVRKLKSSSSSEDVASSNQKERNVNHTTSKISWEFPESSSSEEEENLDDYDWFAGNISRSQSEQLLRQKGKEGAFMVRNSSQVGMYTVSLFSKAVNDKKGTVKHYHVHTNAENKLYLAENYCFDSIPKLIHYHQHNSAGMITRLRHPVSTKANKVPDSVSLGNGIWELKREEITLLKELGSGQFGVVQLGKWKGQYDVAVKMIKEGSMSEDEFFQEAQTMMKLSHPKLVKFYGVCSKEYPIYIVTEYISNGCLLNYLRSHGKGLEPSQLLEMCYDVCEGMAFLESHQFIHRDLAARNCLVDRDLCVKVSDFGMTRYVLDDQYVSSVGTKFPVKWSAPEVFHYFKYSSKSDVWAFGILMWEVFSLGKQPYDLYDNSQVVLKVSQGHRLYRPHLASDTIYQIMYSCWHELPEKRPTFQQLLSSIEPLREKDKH

[2] = Dynamic light scattering, colloidal aggregation; type: physicochemical; details: measured at 10 µM, 1 µM and 100 nM, 25 °C, read-out: DLS maximum soluble concentration at which no aggregates are observed
Method: In addition, we measured particle sizes by using dynamic light scattering (DLS).
DLS is measured at 10 µM, 1µM and 100 nM. The maximum soluble
concentration – at which no aggregates are observed - is indicated and the colour code indicates
Dynamic Light Scattering:
Dynamic light scattering (Zetasizer Nano S, Malvern, UK) was used to determine compound colloidal aggregation. […] A 10 mM stock solution of
test compounds was prepared in DMSO, following dilution to deionized and filtered water to
obtain an analyte solution of 10 μM (0.1% DMSO). Colloidal aggregation was measured
through sequential dilutions at 10 μM, 1 μM and 0.1 μM.

[3] = target: T2, recombinant human BMX protein (hBMX) (Homo sapiens, UniProt P51813); assay: Differential scanning fluorimetry (DSF); type: binding; details: 100 μM compound; for ΔTm at 100 µM: read-out: ΔTm; for Average Tm of BMX with compound: apo-BMX Tm 51.8-52.2 °C
T2 construct: Crystallization, data collection, and structure determination of BMX catalytic domain in; made in house; host or cells: Sf-9 insect cells
Method: We further characterized the binding interaction between JS24–JS27 and BMX by using differential scanning fluorimetry (DSF) and surface plasmon resonance (SPR). Purified recombinant human BMX protein (hBMX) was first subjected to thermal scanning in the absence and presence of JS24–JS27, and the respective protein melting temperature (Tm) calculated.
Differential Scanning Fluorimetry:
DSF was performed in MicroAmp™ EnduraPlate™ Optical 96 -Well Clear Reaction Plates
with Barcode (Applied Biosystems, Life Technologies, California, USA) using a QuantStudio
7 Flex Real-Time PCR System (Applied Biosystems). Pre-incubation of the protein with the
compound for 2 hours at 4 °C was required prior to DSF experiments. The final reaction mixture
(20 μL of total volume) contained 4 μg of His6-BMX, 4-fold of Protein Thermal Shift™ Dye
(Applied Biosystems) diluted in protein buffer solution, and 100 μM of compound. The
temperatures were obtained by taking the midpoint of each transition.

His6-hsBMX = target: T3, His6-hsBMX (Homo sapiens, UniProt P51813); assay: Surface plasmon resonance (SPR); type: binding; details: 1:1 Langmuir fit, 25 °C
T3 construct: Crystallization, data collection, and structure determination of BMX catalytic domain in; made in house; host or cells: Sf-9 insect cells
From the text: response upon compound injection (t=0s), or upon washing (t=220s), on immobilized His6-
hsBMX surfaces. Compound concentrations injected on already saturated surfaces were not
included in the 1:1 Langmuir fitting model. X-axis: time (s); y-axis: response (arbitrary units).
Inset plots [x-axis: compound concentration (M); y-axis: response (arbitrary units)] show the
steady-state affinity (KDss) fit for the interactions wherein equilibrium was reached.
Surface Plasmon Resonance:
The kinetic and affinity parameters of protein-compound interaction were evaluated by SPR.
Experiments were carried out in a Biacore 4000 instrument (Biacore AB, GE Healthcare Life
Sciences, Uppsala, Sweden) at 25 °C. His6-BMX protein was diluted to 10 µg/mL in sodium
acetate pH 5.5, in the presence of 5 µM staurosporine and immobilized onto CM5 (Series S)
sensor chips, using the standard amine coupling procedure. Prior to immobilization, the
carboxymethylated surface of the chip was activated with 400 mM 1-ethyl-3-(3-
dimethylaminopropyl)-carbodiimide and 100 mM N-hydroxysuccinimide for 10 min. HBS-N
(10 mM HEPES pH7.4, 150mM NaCl) was used as the background buffer. Protein was coupled
to the surface after 2 to 10 min injection times, at a flow rate of 10 µL/min, in order to reach
1500 to 3500 response units (RU). The remaining activated carboxymethylated groups were
blocked with a 7 min injection of 1 M ethanolamine pH 8.5. Compounds were pre-diluted in
DMSO to 50x the desired highest tested concentration and diluted afterwards in running buffer
(20 mM HEPES pH 7.4, 150 mM NaCl, 1 mM DTT, 0.1 mM EGTA, 0.05 % (v/v) TWEEN-
20, 5 mM MgCl2) in order to reach 2% of DMSO concentration. A DMSO solvent correction
(1% - 3%) was performed to account for variations in bulk signal and to achieve high-quality
data. Each compound was injected over immobilized His6-BMX for 220 s (30 µL min-1;
association phase) followed by 600 to 2000 s of buffer flow (dissociation phase) at a maximum
five times in 2-fold dilution series. All sensorgrams were processed by first subtracting the
binding response recorded from the control surface (reference spot), followed by subtracting
the buffer blank injection from the reaction spot. All datasets were fit to a simple 1:1 Langmuir
interaction model with the provided Biacore 4000 Evaluation software, to determine kinetic rate constants (kon, koff) or steady-state affinity (KDss).

LNCaP cells [4] = assay: LNCaP cell growth assay (CellTiter-Glo, 96 h); type: cell-based; details: Homo sapiens, 96-well plates, mean of three experiments in triplicate, read-out: GI50 LNCaP
Method: (§1) GI50 values are reported in μM and are the mean of three individual experiments performed in triplicate. N.d., non-determined, no growth inhibition observed within the concentrations tested.
(§2) Cellular activity Assay: LNCaP and PC-3 Cell Growth Assay
(§3) Cells were seeded in white, opaque-bottom 96-well plates at 5000 cells/well (LNCaP) or 2000 cells/well (PC-3) in a total volume of 100 µL of culture media.
(§4) fold) in 100 µL media were added to the cells 24 hours later. After 96 hours incubation cellular viability was assessed by CellTiter-Glo® (Promega) according to the manufacturer’s instructions. The values were normalized to vehicle and IC50 was calculated using GraphPad

PC3 cells = assay: PC-3 cell growth assay (CellTiter-Glo, 96 h); type: cell-based; details: Homo sapiens, PC-3; 96 h, 96-well plates; N.d. = no growth inhibition observed within the concentrations tested; read-out: GI50 PC3
Method: as §1, §2, §3, §4

LNCaP cells [5] = assay: Anti-proliferative co-treatment assays in LNCaP; type: cell-based; details: JS24 3 μM, JS25 5 μM, JS26 6 μM, 5 days
[6] = pH 6.8
From the text: (§5) For assessment of drug permeability, we relied on parallel artificial membrane permeability assay (PAMPA) performed at Pion Inc. with the PAMPA Evolution™ instrument (Table S1, ESI ^†).
(§6) methods (ESOL model1 and Ali et al.2) PAMPA: Pe is effective permeability (x10-6 cm/sec)
(§7) measured directly from assay at pH 6.8 and %R is membrane retention.
(§8) as the average of quadruplicates. Und label refers to compounds with extremely low solubility
(§9) for which UV limits were below the detection limits therefore considered undetected.
(§10) Compounds were labelled as high permeability (green), medium permeability (orange) or low
(§11) Artificial Membrane Permeability (PAMPA):
(§12) The PAMPA Evolution™ instrument was used to determine permeability, at Pion Inc. In
(§13) PAMPA, a sandwich is formed such that each composite well is divided into two chambers,
(§14) measured at pH 6.8 in the donor compartment using low-binding, low UV Prisma buffer. The
(§15) drug-free acceptor compartment was filled with acceptor sink buffer containing a scavenger at
(§16) the start of the test. The proprietary scavenger mimics serum proteins and blood circulation,
(§17) thus creating sink conditions. Aqueous solutions of studied compounds are prepared by diluting
(§18) and thoroughly mixing 3 µL of DMSO stock in 600 µL of Prisma HT buffer. Final
(§19) concentration of organic solvent (DMSO) in aqueous buffer is ≤ 0.5% (v/v). The reference
(§20) solution is identical to the donor at time zero, so that any surface adsorption effects from the
(§21) plastic ware is compensated. The PAMPA sandwich was assembled and allowed to incubate
(§22) for ~15 hours. The solutions in the donor compartment were un-stirred within duration of the
(§23) experiment. Thus, the thickness of the aqueous boundary layer expected to be about 1000 µm.
(§24) The sandwich was then separated, and both the donor and receiver compartments were assayed
(§25) for the amount of drug present by comparison with the UV spectrum obtained from reference

in vitro = details: PAMPA
From the text: as §5, §6, §7, §8, §9, §10, §11, §12, §13, §14, §15, §16, §17, §18, §19, §20, §21, §22, §23, §24, §25

BMX [7] = target: T1, BMX; assay: Kinetic characterization with ADP-Glo kinase assay; type: biochemical; parameters: purchased Promega Corporation (USA) V4512; details: duplicate, mean ± S.D.
From the text: The inactivation of BMX occurs in a two-step process that is governed by two parameters: the affinity of the initial non-covalent binding, KI, and the rate of the subsequent covalent bond-forming reaction with the thiol of the cysteine residue, kinact. […]. […] Thus, taking into account that all the analogues have the same Michael acceptor moiety, the enhanced activity must be a result of the structural modifications introduced in the scaffold. […]
Kinetic characterization using an ADP-GLOTM kinase assay:
The BMX enzyme system (Catalog. V4512) and the ADP-GloTM kinase assay were purchased from Promega Corporation (USA). In each kinase reaction, the concentration of BMX was set to 4.5 ng/µL. The peptide substrate Poly (4:1 Glu, Tyr) and ATP concentrations were set to 0.25 mg/mL and 50 µM, respectively. BMX was pre-incubated with different inhibitor concentrations (10-fold serial dilutions, starting at 1 mM), over different time periods (2 - 60 min), before initiating the kinase reactions. Reactions were started by adding 2.5X Poly E4Y1/ATP mixture. The reactions were carried out in a 384-well plate, stopping all at the same time with the addition of 5 µL of ADP-GloTM reagent, to consume the remaining ATP within 40 min. Then, 10 µL of kinase detection reagent was added into the wells and incubated for 30 min to produce a luminescence signal. The signal was measured using an Infinite M200 […]
observed rate constants for inhibition (kobs), at different inhibitor concentrations, were determined from the slope of a semi-logarithmic plot of inhibition versus time, and re-plotted against inhibitor concentration (nM). The experimental values were fitted into a hyperbolic function using GraphPad Prism 8 ([…]), to obtain the KI, kinact, and kinact/KI, as described previously.12 […]
(Thermo Fisher Scientific) using gold-coated glass needles. […]

LNCaP = assay: Multi cell line growth assay (CellTiter-Glo, 72 h); type: cell-based, human; details: Prostate, ND = no growth inhibition observed within the concentrations tested
22 RV1 = assay: Multi cell line growth assay (CellTiter-Glo, 72 h); type: cell-based, human; details: Prostate, ND = no growth inhibition observed
PC3 = assay: Multi cell line growth assay (CellTiter-Glo, 72 h); type: cell-based, human; details: Prostate, ND = no growth inhibition observed
SK-N-MC = assay: Multi cell line growth assay (CellTiter-Glo, 72 h); type: cell-based, human; details: Brain, ND = no growth inhibition observed
Jurkat = assay: Multi cell line growth assay (CellTiter-Glo, 72 h); type: cell-based, human; details: Blood, ND = no growth inhibition observed
Kasumi = assay: Multi cell line growth assay (CellTiter-Glo, 72 h); type: cell-based, human; details: Blood, ND = no growth inhibition observed
CAOV3 = assay: Multi cell line growth assay (CellTiter-Glo, 72 h); type: cell-based, human; details: Ovary, ND = no growth inhibition observed
RS4(11) = assay: Multi cell line growth assay (CellTiter-Glo, 72 h); type: cell-based, human; details: Lung (so in the source), ND = no growth inhibition observed
DAUDI = assay: Multi cell line growth assay (CellTiter-Glo, 72 h); type: cell-based, human; details: Lymphoid, ND = no growth inhibition observed
H1299 = assay: Multi cell line growth assay (CellTiter-Glo, 72 h); type: cell-based, human; details: Bone marrow (so in the source), ND = no growth inhibition observed
BTK = BTK (Homo sapiens, UniProt Q06187); assay: BTK biochemical activity assay (radiometric, KinaseProfiler); parameters: purchased Eurofins DiscoverX KinaseProfiler (contract assay)
Chain of BTK (Q06187 whole entry, species assumed): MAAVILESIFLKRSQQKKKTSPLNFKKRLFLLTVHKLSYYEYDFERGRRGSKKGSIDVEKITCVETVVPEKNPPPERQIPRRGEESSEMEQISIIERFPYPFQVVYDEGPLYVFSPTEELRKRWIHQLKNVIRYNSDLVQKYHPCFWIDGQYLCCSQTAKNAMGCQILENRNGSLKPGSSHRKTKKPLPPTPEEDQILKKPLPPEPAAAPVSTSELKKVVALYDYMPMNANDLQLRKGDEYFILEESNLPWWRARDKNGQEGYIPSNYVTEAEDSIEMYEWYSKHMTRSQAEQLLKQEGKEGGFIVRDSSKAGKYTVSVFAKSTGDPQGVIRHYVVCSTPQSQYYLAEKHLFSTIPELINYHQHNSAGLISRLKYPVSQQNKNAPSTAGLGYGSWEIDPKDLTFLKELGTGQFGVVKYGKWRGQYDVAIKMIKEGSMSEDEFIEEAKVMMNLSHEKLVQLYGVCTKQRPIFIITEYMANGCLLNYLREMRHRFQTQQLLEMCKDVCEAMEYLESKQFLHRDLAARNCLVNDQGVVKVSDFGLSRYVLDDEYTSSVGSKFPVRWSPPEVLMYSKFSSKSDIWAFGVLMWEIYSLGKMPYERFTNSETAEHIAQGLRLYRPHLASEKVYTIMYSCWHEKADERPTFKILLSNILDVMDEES

[8] = Experiment 4 of Fig. S3 = Fig. 1b, duplicate, mean ± S.D., read-out: BMX inhibition IC50
[9] = deionized and filtered water (0.1% DMSO), kinetic from dmso stock
[10] = pH 6.8, PAMPA/Pe effective permeability
[11] = relative to the control of the same set of experiments

| Compound | IC50 (BMX [1]; [8]) | LE (BMX) (BMX [1]) | LipE (BMX) (BMX [1]) | solubility [2, 9] | ΔTm at 100 µM ([3]; versus apo-BMX) | Average Tm of BMX with compound [3] | koff (His6-hsBMX) | kon (His6-hsBMX) | GI50 (LNCaP cells [4]) | PAMPA/%R membrane retention [6] | Papp (in vitro; pH 6.8, PAMPA permeability) | Papp (in vitro; [10]) | k inact (BMX [7]) | solubility ([2]; water) | GI50 (LNCaP) | GI50 (22 RV1) | GI50 (SK-N-MC) | GI50 (Jurkat) | GI50 (Kasumi) | GI50 (CAOV3) | other results |
| --- | --- | --- | --- | --- | --- | --- | --- | --- | --- | --- | --- | --- | --- | --- | --- | --- | --- | --- | --- | --- | --- |
| C=CC(=O)Nc1cccc(-n2c(=O)ccc3cnc4cc(-c5ccc(NS(C)(=O)=O)cc5)ccc4c32)c1 [JS26] | 0.0091 µM | 0.30 | 4.45 | ≥ 10 µM | 9.34 ± 0.21 °C | 61.47±0.21 °C | < 0.0001 s⁻¹ | 72000 M⁻¹ s⁻¹ | 7.7 µM | 8±14% | 19 ×10⁻⁶ cm/s | 19 ± 13 ×10⁻⁶ cm/s | 0.443 min⁻¹ and 0.443 ± 0.003 min⁻¹ | – | – | – | – | – | – | – | GI50 (PC3 cells): 10.1 ± 1.3 µM; decrease in cell viability (LNCaP cells [5]; co-treatment with AKT1/2 (1 μM), relative to control AKT1/2): 63%; decrease in cell viability (LNCaP cells [5]; co-treatment with LY294002 (3 μM)): 35% |
| CC(C)=CC(=O)Nc1cc(-n2c(=O)ccc3cnc4ccc(-c5ccc(NS(C)(=O)=O)cc5)cc4c32)ccc1C [JS11] | – | – | – | – | – | 52.26±0.11 °C | – | – | – | 54±9% | – | – | – | 0.1 µM (≈ 0.0553 µg/mL) | 10.4 µM | 7.3 µM | 8.24 µM | 6.36 ± 0.17 µM | 10.14 ± 0.07 µM | 19.3 µM | ΔTm ([3]; versus apo-BMX): 0.34±0.11 °C; GI50 (PC3): 20.1 µM; GI50 (RS4(11)): 6.66 µM; GI50 (DAUDI): 4.57 ± 0.12 µM; PAMPA/Pe effective permeability [6]: 31±4 x10-6 cm/sec |
| CC=CC(=O)Nc1cc(-n2c(=O)ccc3cnc4ccc(-c5ccc(NS(C)(=O)=O)cc5)cc4c32)ccc1C [JS10] | – | – | – | – | – | – | – | – | – | 33±4% | – | – | – | 0.1 µM (≈ 0.0539 µg/mL) | 9.7 µM | 4.86 ± 0.11 µM | 11.2 µM | 9.71 ± 1.48 µM | 4.37 ± 0.04 µM | 17.3 µM | IC50 (BMX [1]; Experiment 1 of Fig. S3, control JS9A (in-house BMX-IN-1), read-out: BMX IC50): 21 ± 7.25 µM; BMX potency loss (fold) against control BMX-IN-1 (BMX [1]; [11]): 58 fold; GI50 (H1299): 19.4 µM; GI50 (RS4(11)): 5.06 µM; GI50 (DAUDI): 2.57 ± 0.09 µM; PAMPA/Pe effective permeability [6]: 28±4 x10-6 cm/sec |
| C=CC(=O)Nc1cccc(-n2c(=O)ccc3cnc4cc(N5CCN(S(C)(=O)=O)CC5)ccc4c32)c1 [JS27] | 0.0137 µM | 0.30 | 5.54 | ≥ 10 µM | 10.81 ± 0.06 °C | 62.94±0.06 °C | < 0.0001 s⁻¹ | 99000 M⁻¹ s⁻¹ | 9.3 µM | 42±14% | 12 ×10⁻⁶ cm/s | 12 ± 2 ×10⁻⁶ cm/s | 0.166 min⁻¹ and 0.166 ± 0.003 min⁻¹ | – | – | – | – | – | – | – | BMX potency gain (fold) against BMX-IN-1 (BMX [1]; [11]): ≈ 4 fold; BTK potency gain (fold) relative to BMX-IN-1 (BTK): 15 fold; IC50 (BTK; duplicate, mean ± S.D., read-out: BTK inhibition IC50): 0.0243 ± 0.0003 µM; LE (BTK) (BTK; ligand efficiency): 0.29; LipE (BTK) (BTK; lipophilic efficiency): 5.29 |
